Experimental data from patent publication US9499550B2 (BRISTOL-MYERS SQUIBB COMPANY, priority 2012, dated 2016).
Where two headings read alike, the source gives them in different places.

Experiments:
[1] = test system: HCV genotype 1a (H77 strain) replicon in HUH-7 cells; test: HCV replicon luciferase reporter assay, genotype 1a; type: cell-based; conditions: Hepatitis C virus, Huh-7, 72 h, 3 days incubation
Method in brief: (§1)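 Replicon inhibition for both genotypes was measured as Renilla luciferase signal (EnduRen, 7.5 μM final, 2 h) after 3-day, 37° C exposure of replicon-bearing HUH-7 cells in 4% FCS DMEM, 0.5% DMSO. The 1b construct carries S1179I; the 1a H77 construct carries P1496L and S2204I. Twenty-point, 3-fold dilutions were fitted four-parametrically for EC50, and CC50 was taken from multiplexed Cell Titer-Blue.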

[2] = test system: HCV genotype 1b (Con1) replicon in HUH-7 cells; test: HCV replicon luciferase reporter assay, genotype 1b; type: cell-based; conditions: Hepatitis C virus, Huh-7, 72 h, 3 days incubation
Method in brief: as §1

[3] = HCV genotype 1a replicon luciferase assay, range class, read-out: LE_1a (EC50, range)
[4] = HCV genotype 1b replicon luciferase assay, range class, read-out: LE_1b (EC50, range)
[5] = HCV genotype 1a replicon luciferase, read-out: LE_1a (EC50, range)
[6] = HCV genotype 1b replicon luciferase, read-out: LE_1b (EC50, range)

SMILES	EC50 [1, 3]	EC50 [2, 4]	EC50 [1, 5]	EC50 [2, 6]	EC50 ([1]; HCV genotype 1a replicon luciferase, read-out: LE_1a (EC50))	EC50 ([2]; HCV genotype 1b replicon luciferase, read-out: LE_1b (EC50))
COc1ccc2c(O[C@@H]3C[C@H]4C(=O)N[C@]5(C(=O)NS(=O)(=O)C6(C)CC6)C[C@H]5/C=C\CC[C@@H](C)C[C@@H](C)[C@H](NC(=O)OC(C)(C)C(F)(F)F)C(=O)N4C3)nc(OC)cc2c1 [Compound 1133, 1,1,1-trifluoro-2-methylpropan-2-yl((2R,6S,7R,9R,13aS,14aR,16aS,Z)-2-((3,6-dimethoxyisoquinolin-1-yl)oxy)-7,9-dimethyl-14a-(((1-methylcyclopropyl)sulfonyl)carbamoyl)-5,16-dioxo-1,2,3,5,6,7,8,9,10,11,13a,14,14a,15,16,16a-hexadecahydrocyclopropa[e]pyrrolo[1,2-a][1,4]diazacyclopentadecin-6-yl)carbamate]	< 5.46 nM	< 5.46 nM	–	–	–	–
CCOc1nnc(O[C@@H]2C[C@H]3C(=O)N[C@]4(C(=O)NS(=O)(=O)C5(C)CC5)C[C@H]4/C=C\CC[C@H](C)C[C@@H](CC)[C@H](NC(=O)OC(C)(C)C(F)(F)F)C(=O)N3C2)c2ccccc12 [Compound 5048, 1,1,1-trifluoro-2-methylpropan-2-yl((2R,6S,7R,9S,13aS,14aR,16aS,Z)-2-((4-ethoxyphthalazin-1-yl)oxy)-7-ethyl-9-methyl-14a-(((1-methylcyclopropyl)sulfonyl)carbamoyl)-5,16-dioxo-1,2,3,5,6,7,8,9,10,11,13a,14,14a,15,16,16a-hexadecahydrocyclopropa[e]pyrrolo[1,2-a][1,4]diazacyclopentadecin-6-yl)carbamate]	–	–	4.82 to 103 nM	4.82 to 103 nM	–	–
COc1ccc2c(O[C@@H]3C[C@H]4C(=O)N[C@]5(C(=O)NS(=O)(=O)C6CC6)C[C@H]5/C=C\CC[C@@H](C)C[C@@H](C)[C@H](NC(=O)OC(C)(C)C(F)(F)F)C(=O)N4C3)nccc2c1F [Compound 3150, 1,1,1-trifluoro-2-methylpropan-2-yl((2R,6S,7R,9R,13aS,14aR,16aS,Z)-14a-((cyclopropylsulfonyl)carbamoyl)-2-((5-fluoro-6-methoxyisoquinolin-1-yl)oxy)-7,9-dimethyl-5,16-dioxo-1,2,3,5,6,7,8,9,10,11,13a,14,14a,15,16,16a-hexadecahydrocyclopropa[e]pyrrolo[1,2-a][1,4]diazacyclopentadecin-6-yl)carbamate]	< 5.46 nM	< 5.46 nM	–	–	–	–
[2H]C([2H])([2H])Oc1cnc(O[C@@H]2C[C@H]3C(=O)N[C@]4(C(=O)NS(=O)(=O)C5(C)CC5)C[C@H]4/C=C\CC[C@H](C)C[C@@H](C)[C@H](NC(=O)OC(C([2H])([2H])[2H])(C([2H])([2H])[2H])C(F)(F)F)C(=O)N3C2)c2ccccc12 [Compound 5104, 1,1,1,3,3,3-hexadeutero-2-(trifluoromethyl)propan-2-yl((2R,6S,7R,9S,13aS,14aR,16aS,Z)-7,9-dimethyl-14a-(((1-methylcyclopropyl)sulfonyl)carbamoyl)-5,16-dioxo-2-((4-(trideuteromethoxy)isoquinolin-1-yl)oxy)-1,2,3,5,6,7,8,9,10,11,13a,14,14a,15,16,16a-hexadecahydrocyclopropa[e]pyrrolo[1,2-a][1,4]diazacyclopentadecin-6-yl)carbamate]	–	–	< 5.46 nM	< 5.46 nM	–	–
COc1ccc2c(O[C@@H]3C[C@H]4C(=O)N[C@]5(C(=O)NS(=O)(=O)C6(C)CC6)C[C@H]5/C=C\CC[C@H](C)C[C@@H](C)[C@H](NC(=O)OC(C)(C)C(F)(F)F)C(=O)N4C3)nc(N3CCCC3)cc2c1 [Compound 3118, 1,1,1-trifluoro-2-methylpropan-2-yl((2R,6S,7R,9S,13aS,14aR,16aS,Z)-2-((6-methoxy-3-(pyrrolidin-1-yl)isoquinolin-1-yl)oxy)-7,9-dimethyl-14a-(((1-methylcyclopropyl)sulfonyl)carbamoyl)-5,16-dioxo-1,2,3,5,6,7,8,9,10,11,13a,14,14a,15,16,16a-hexadecahydrocyclopropa[e]pyrrolo[1,2-a][1,4]diazacyclopentadecin-6-yl)carbamate]	4.82 to 103 nM	4.82 to 103 nM	–	–	–	–
CC[C@@H]1C[C@H](C)CC/C=C\[C@@H]2C[C@@]2(C(=O)NS(=O)(=O)C2(C)CC2)NC(=O)[C@@H]2C[C@@H](Oc3ncc(OC)c4ccccc34)CN2C(=O)[C@H]1NC(=O)OC(C)(C)C(F)F [Compound 5533, 1,1-difluoro-2-methylpropan-2-yl((2R,6S,7R,9R,13aS,14aR,16aS,Z)-7-ethyl-2-((4-methoxyisoquinolin-1-yl)oxy)-9-methyl-14a-(((1-methylcyclopropyl)sulfonyl)carbamoyl)-5,16-dioxo-1,2,3,5,6,7,8,9,10,11,13a,14,14a,15,16,16a-hexadecahydrocyclopropa[e]pyrrolo[1,2-a][1,4]diazacyclopentadecin-6-yl)carbamate]	–	–	1.01 to 5 nM	0.1 to 0.5 nM	–	–
COc1cnc(O[C@@H]2C[C@H]3C(=O)N[C@]4(C(=O)NS(=O)(=O)C5(C)CC5)C[C@H]4/C=C\CC[C@H](C)C[C@@H](C)[C@H](NC(=O)OC(C)(C)C(F)(F)F)C(=O)N3C2)c2ccc(N(C)C)cc12 [Compound 3137, 1,1,1-trifluoro-2-methylpropan-2-yl((2R,6S,7R,9S,13aS,14aR,16aS,Z)-2-((6-(dimethylamino)-4-methoxyisoquinolin-1-yl)oxy)-7,9-dimethyl-14a-(((1-methylcyclopropyl)sulfonyl)carbamoyl)-5,16-dioxo-1,2,3,5,6,7,8,9,10,11,13a,14,14a,15,16,16a-hexadecahydrocyclopropa[e]pyrrolo[1,2-a][1,4]diazacyclopentadecin-6-yl)carbamate]	< 5.46 nM	< 5.46 nM	–	–	–	–
CCOc1cnc(O[C@@H]2C[C@H]3C(=O)N[C@]4(C(=O)NS(=O)(=O)C5(C)CC5)C[C@H]4/C=C\CC[C@@H](C)C[C@@H](C)[C@H](NC(=O)OC(C)(C)C)C(=O)N3C2)c2cc(Cl)ccc12 [Compound 4075, tert-butyl (2R,6S,7R,9R,13aS,14aR,16aS,Z)-2-(7-chloro-4-ethoxyisoquinolin-1-yloxy)-7,9-dimethyl-14a-(1-methylcyclopropylsulfonylcarbamoyl)-5,16-dioxo-1,2,3,5,6,7,8,9,10,11,13a,14,14a,15,16,16a-hexadecahydrocyclopropa[e]pyrrolo[1,2-a][1,4]diazacyclopentadecin-6-ylcarbamate]	–	–	< 5.46 nM	< 5.46 nM	–	–
C[C@@H]1CC/C=C\[C@@H]2C[C@@]2(C(=O)NS(=O)(=O)C2(C)CC2)NC(=O)[C@@H]2C[C@@H](Oc3ncnc4c(Cl)cccc34)CN2C(=O)[C@@H](NC(=O)OC(C)(C)C)[C@H](C)C1 [Compound 4145, tert-butyl (2R,6S,7R,9R,13aS,14aR,16aS,Z)-2-(8-chloroquinazolin-4-yloxy)-7,9-dimethyl-14a-(1-methylcyclopropylsulfonylcarbamoyl)-5,16-dioxo-1,2,3,5,6,7,8,9,10,11,13a,14,14a,15,16,16a-hexadecahydrocyclopropa[e]pyrrolo[1,2-a][1,4]diazacyclopentadecin-6-ylcarbamate]	–	–	< 5.46 nM	< 5.46 nM	–	–
COc1ccc2nc(C(C)C)c(O[C@@H]3C[C@H]4C(=O)N[C@]5(C(=O)NS(=O)(=O)C6CC6)C[C@H]5/C=C\CC[C@H](C)C[C@@H](C)[C@H](NC(=O)OC(C)(C)C)C(=O)N4C3)nc2c1 [Compound 4315, tert-butyl ((2R,6S,7R,9S,13aS,14aR,16aS,Z)-14a-((cyclopropylsulfonyl)carbamoyl)-2-((3-isopropyl-7-methoxyquinoxalin-2-yl)oxy)-7,9-dimethyl-5,16-dioxo-1,2,3,5,6,7,8,9,10,11,13a,14,14a,15,16,16a-hexadecahydrocyclopropa[e]pyrrolo[1,2-a][1,4]diazacyclopentadecin-6-yl)carbamate]	–	–	5.01 to 35 nM	1.01 to 5 nM	–	–
CCn1nc(O[C@@H]2C[C@H]3C(=O)N[C@]4(C(=O)NS(=O)(=O)C5(C)CC5)C[C@H]4/C=C\CC[C@H](C)C[C@@H](C)[C@H](NC(=O)O[C@@H]4C[C@@H]5C[C@@H]5C4)C(=O)N3C2)c2ccccc2c1=O [Compound 5056, (1R,3r,5S)-bicyclo[3.1.0]hexan-3-yl((2R,6S,7R,9S,13aS,14aR,16aS,Z)-2-((3-ethyl-4-oxo-3,4-dihydrophthalazin-1-yl)oxy)-7,9-dimethyl-14a-(((1-methylcyclopropyl)sulfonyl)carbamoyl)-5,16-dioxo-1,2,3,5,6,7,8,9,10,11,13a,14,14a,15,16,16a-hexadecahydrocyclopropa[e]pyrrolo[1,2-a][1,4]diazacyclopentadecin-6-yl)carbamate]	–	–	> 87.4 nM	4.82 to 103 nM	256 nM	61 nM
COc1cc2cc(-c3ccc(OC(C)C)cc3)nc(O[C@@H]3C[C@H]4C(=O)N[C@]5(C(=O)NS(=O)(=O)C6CC6)C[C@H]5/C=C\CC[C@@H](C)C[C@@H](C)[C@H](NC(=O)OC(C)(C)C(F)(F)F)C(=O)N4C3)c2cc1F [Compound 3190, 1,1,1-trifluoro-2-methylpropan-2-yl((2R,6S,7R,9R,13aS,14aR,16aS,Z)-14a-((cyclopropylsulfonyl)carbamoyl)-2-((7-fluoro-3-(4-isopropoxyphenyl)-6-methoxyisoquinolin-1-yl)oxy)-7,9-dimethyl-5,16-dioxo-1,2,3,5,6,7,8,9,10,11,13a,14,14a,15,16,16a-hexadecahydrocyclopropa[e]pyrrolo[1,2-a][1,4]diazacyclopentadecin-6-yl)carbamate]	–	–	< 5.46 nM	< 5.46 nM	–	–
